According to patent US20060040870A1, “Enhancement of apoptosis by caspase-9 inhibitors” (priority 2004, published 2006):
The star is where a group is joined. Cbz = O=C(OCc1ccccc1)*; CH2F = FC*

Tests used:
[1] = test system: K-562 erythroleukemia cell line; assay: Apoptosis by Annexin V staining and flow cytometry, K-562; type: cell-based; settings: K-562, 50 μM, 18 hours
Protocol: (§1) FIG. 4 is a pair of graphs showing the effect of […] on various cell lines, as determined by Annexin V staining and flow cytometry. The cells included the B-cell precursor ALL cell lines […], and NALM-6, the RAMOS, RAJI, and DAUDI Burkitt lymphoma cell lines, the CCRF-CEM, JURKAT, and H9 T lymphoma cell lines, the K-562 erythroleukemia cell line, and resting or activated (i.e., CD3/CD28 cross-linked) normal human T cells. […] Flow cytometry. Quantitation of apoptotic events was conducted using a FACS Calibur (BD Immunocytometry Systems). All analyses were conducted on cells with lymphoid light scatter characteristics (i.e., low to medium forward scatter and low 90° side scatter). iii. Annexin V. […] Cells were stained according to the manufacturers recommendations.

[2] = test system: RAJI Burkitt lymphoma cell line; assay: Apoptosis by Annexin V staining and flow cytometry, RAJI; type: cell-based; settings: 50 μM, 18 hours
Protocol: as §1

BLIN-4L cells = assay: Apoptosis by Annexin V staining and flow cytometry, BLIN-4L; type: cell-based, human; settings: 50 μM
Protocol: (§2) Flow cytometry. Quantitation of apoptotic events was conducted using a FACS Calibur (BD Immunocytometry Systems). All analyses were conducted on cells with lymphoid light scatter characteristics (i.e., low to medium forward scatter and low 90° side scatter).
(§3) iii. Annexin V. FITC-labeled Annexin V (BD Pharmingen, San Diego, Calif.) was used to detect external phosphatidylserine residues appearing on the external surface of early apoptotic cells (Koopman Blood. 1994;84:1415-1420). Cells were stained according to the manufacturers recommendations.
(§4) General experimental strategy. BLIN cell lines were removed from fibroblast monolayers, washed once and resuspended to 7.5×10^5/ml in X-VIVO 10. Two hundred μL of resuspended cells were added to 96-well flat-bottom microtiter plates (ISC Bioexpress, Kaysville, Vt.), followed by 0.5-1.0 μL of caspase inhibitors in DMSO. An identical volume of DMSO alone was added to separate wells as a vehicle control. This final DMSO concentration of 0.25-0.5% vol/vol had no adverse affect on any of the BLIN cell lines. At the indicated times the entire content of individual wells was harvested and stained in the fluorescent protocols described above.
The inventors carried out experiments to test the influence of specific amino acid substitutions on the proapoptotic activity Z-LEHD-fmk. […]

leukemia/lymphoma cells = assay: Pro-apoptotic activity of caspase inhibitor sequences (Table 2); type: cell-based; design: key: “−” is no activity; ++++ is maximum activity
From the text: Caspases are constitutively express in cells, and are usually in their pro-form. In response to an incident, such as irradiation or chemotherapy, the pro-form of the caspase is converted into the activated state. Certain compounds are known that can inhibit caspases. For example, the pan-caspase (PCi) VAD can block all caspases. […] For example, C2i inhibits caspase-2. This particular inhibitor is very dose dependent.

CD33+ myeloid cells = assay: Annexin V staining of sorted cord blood-derived CD33+ myeloid cells removed from MS-5 stroma; type: cell-based, human; settings: cultured 18 hours, DMSO control 27.9 ± 3.9, Time 0 <10
CD19+ B-cell precursors = assay: Annexin V staining of sorted cord blood-derived CD19+ B-cell precursors removed from MS-5 stroma; type: cell-based, human; settings: cultured 18 hours, DMSO control 46.5 ± 1.4, Time 0 1.5
Protocol: Normal B-lineage cells. CD19+ B-lineage cells were derived from CD34+ human cord blood stem cells plated on the murine stromal cell line MS-5 (Itoh Exp Hematol. 1989;17:145-153). MS-5 stromal cells were kindly provided by Dr. Paul Kincade (University of Oklahoma Medical Research Foundation), following permission from Professor K. John Mori (Niigata University, Japan). FACS-purified CD34+/CD38+/lineage—cord blood hematopoietic stem cells were plated onto confluent, non-irradiated MS-5 stromal cells in 96-well flat-bottom plates (200 cells/well) containing Minimal Essential Medium supplemented with 10% FBS. Stem cell factor and G-CSF were added at 10 ng/ml (twice weekly) to enhance the emergence of CD19+ B-lineage cells (Nishihara Eur J Immunol. 1998;28:855-864; Ohkawara Leukemia. 1998;12:764-771). […] Wells were then pooled, stained with PE-conjugated anti-CD 19 + propidium iodide (PI), and sorted on a FACSVantage (BD Immunocytometry Systems, San Jose, Calif.). Cord blood CD34+/CD38+/lineage—cells were provided by Valerie McCullar and Dr. Jeff Miller of the University of Minnesota Cancer Center in accordance with the University of Minnesota Institutional Review Board on Human Subjects.
Flow cytometry. Quantitation of apoptotic events was conducted using a FACS Calibur (BD Immunocytometry Systems). […]

BLIN cell lines = assay: Enhancement of apoptosis in BLIN cell lines (flow cytometry); type: cell-based, human
Protocol: as §2
i. Mitochondrial transmembrane potential (Δψm). The cationic lipophilic fluorescent dye tetramethylrhodamine, ethyl ester, perchlorate (TMRE) was purchased from Molecular Probes, Inc. (Eugene, Oreg.). TMRE has a high degree of membrane permeability and accumulates into mitochondria in accord with the Nernstian equation (Farkas Biophys J. 1989;56:1053-1069). Cells were washed once and re-suspended to 0.5-1.0×10^6/ml in X-VIVO 10. TMRE was added to a final concentration of 50 nM and the cells were incubated in the dark at 37° C. for 15 minutes. Cells were then washed 2× in PBS, resuspended in PBS containing 2 μg/ml of propidium iodide (PI), and immediately analyzed. The protonophore […] (50 μM, CCCP, Sigma) was used as a positive control to effect loss of Δψm in 100% of cells.
ii. YO-PRO-1. The green fluorescent DNA intercalant dye YO-PRO-1 (Idziorek J Immunol Methods. 1995;185:249-258) was purchased from Molecular Probes as the Vybrant Apoptosis Assay Kit #4. Dual staining with YO-PRO and PI allows for the detection of early apoptotic cells (YO-PRO+/PI−) that have undergone initial changes in permeability to small molecules. Cells were stained according to the manufacturers recommendations.
as §3, §4

NALM-6 cells = assay: Apoptosis by Annexin V staining and flow cytometry, NALM-6; type: cell-based; settings: NALM-6, 50 μM, 18 hours
Protocol: as §1

BLIN-3 cells = assay: Apoptosis by Annexin V staining and flow cytometry, BLIN-3; type: cell-based, human
Protocol: as §2, §3, §4
The inventors carried out experiments to test the influence of specific amino acid substitutions on the proapoptotic activity Z-LEHD-fmk. Cells were cultured for 24 hours with various μM concentrations of Z-LEDH-fmk or single amino acid substitution of the parent peptide. All values in the following Table 3 represent the percentage of total Annexin V+ cells (PI+ and PI−) minus the percentage present in culture with DMSO alone (BLIN-2=3%; BLIN-3+7%; BLIN4L=5%).

Z-LEHD-fmk (Cbz-LEHD-CH2F; SMILES CC(C)C[C@H](NC(=O)OCc1ccccc1)C(=O)N[C@@H](CCC(=O)O)C(=O)N[C@@H](Cc1c[nH]cn1)C(=O)N[C@@H](CC(=O)O)C(=O)CF) [C9i]
sensitivity (fold-increase in Annexin V+ cells vs DMSO) [1]: insensitive | sensitivity (fold-increase in Annexin V+ cells vs DMSO) [2]: insensitive | apoptosis (Annexin V and TMRE staining) versus DMSO vehicle (BLIN-4L cells; BLIN-4L removed from adherent fibroblasts, 2-hour time points up to 8 hours): promoted apoptosis in BLIN-4L, albeit not as pronounced as in BLIN-3 | sensitivity (fold-increase in Annexin V+ cells vs DMSO) (BLIN-4L cells; BLIN-4L, 18 hours): sensitive | Pro-apoptotic Activity (after 24 hours) (leukemia/lymphoma cells): ++++ | percentage of total Annexin V+ cells (PI+ and PI−), mean ± SD (CD33+ myeloid cells): 22.3 ± 1.2% | percentage of total Annexin V+ cells (PI+ and PI−), mean ± SD (CD19+ B-cell precursors): 56.0 ± 3.2 % | lowest concentration at which enhancement of apoptosis occurred (BLIN cell lines): 6.25 µM | promotion of apoptosis in healthy cells (BLIN cell lines; BLIN-3 and BLIN-4L maintained on adherent fibroblasts and/or IL-7, 8 hours): did not promote apoptosis | promotion of apoptosis in healthy cells (BLIN cell lines; BLIN-3 and BLIN-4L maintained on adherent fibroblasts and/or IL-7, 18 hours): promoted apoptosis | sensitivity (fold-increase in Annexin V+ cells vs DMSO) (NALM-6 cells): sensitive | sensitivity (fold-increase in Annexin V+ cells vs DMSO) (BLIN-3 cells; BLIN-3, 50 μM, 18 hours): sensitive | apoptosis (Annexin V and TMRE staining) versus DMSO vehicle (BLIN-3 cells; BLIN-3 removed from adherent fibroblasts, 50 μM, 2-hour time points up to 8 hours): pronounced enhancement of apoptosis
